Data set [1] addresses T1, TACE (crude extracted protein from membrane fraction of THP-1 cells) (Homo sapiens, UniProt P78536).
T1 construct: The supernatant was collected, which was provided for use as a TACE crude extract; endogenous in cells; host or cells: THP-1 cells stimulated with LPS, silica and hydroxyurea; membrane fraction solubilised with 1% Triton X-100
The data set can be described thus: In vitro TACE inhibitory activity (fluorogenic peptide substrate). Type of data set: biochemical. The following applies: crude TACE 10 μg/mL, substrate 20 μM, room temperature, at least 4 hours. The procedure: Test 1 (In Vitro TACE Inhibitory Activity)
(1) Crude Extraction of TACE from THP-1 Cell Membrane
To THP-1 cells (cell density: 2×10^6/mL) suspended in RPMI 1640 medium containing 1% FBS were added LPS (E. coli 055:B55, final concentration: 1 pg/mL), silica (0.014 μm, final concentration: 50 μg/mL) and hydroxyurea (final concenration: 2 mM), followed by cultivation at 37° C. for 16 hours under 5%-CO2 conditions. The resulting cells were then washed once with RPMI 1640 medium free of FBS. The cells were suspended in 3 times the pellet volume of Solution A (10 mM sodium phosphate (pH 7.4), 1 mM MgCl2, 30 mM NaCl, 0.02% NaN3, 5 μM PMSF (phenyl methyl sulfonyl fluoride)). The cells were ground by a Polytron homogenizer (5 sec×5 times, ice cooling for 1 to 2 minutes each time). The homogenate solution was stacked over 41% sucrose-Solution A, followed by centrifugation (150,000 g×1 hour). After centrifugation, the intermediate layer was collected and diluted with 4 volumes of Solution A, followed by centrifugation (150,000 g×20 min). A sufficient amount of a solubilizing solution (1%-Triton X-100-A solution) was added (protein concentration: 1 mg/mL) and the mixture was stirred (4° C.×1 hour). Stirring was followed by centrifugation (100,000 g×30 min, 4° C.). The supernatant was collected, which was provided for use as a TACE crude extract.
(2) Measurement of TACE Inhibitory Activity
TACE (crude extracted protein from membrane fraction of THP-1 cells, final concentration: 10 μg/mL), each of test compounds (DMSO final concentration: 1%) shown in Table 1 and an incubate solution (50 mM Tris-HCl (pH 7.4), 5 mM CaCl2, 0.002% NaN3, 0.002% Brij 35) was added to a 96-well black plate. After pre-incubation at room temperature for 30 minutes, a substrate (N-methylanthranilyl-LAQAVRSK(DNP)rr-NH2: product of PEPTIDE INSTITUTE, INC., final concentration: 20 μM) was added, followed by incubation at room temperature for at least 4 hours. The fluorescence intensity was measured using POLAR STAR (Ex: 340 nm, Em: 430 nm) and from it, TACE inhibitory activity (IC50 value) was calculated.

The target in the next data set is T2, MMP-1 (Homo sapiens, UniProt P03956).
T2 construct: purchased Cosmo Bio Co
T2 sequence (P03956 100-469): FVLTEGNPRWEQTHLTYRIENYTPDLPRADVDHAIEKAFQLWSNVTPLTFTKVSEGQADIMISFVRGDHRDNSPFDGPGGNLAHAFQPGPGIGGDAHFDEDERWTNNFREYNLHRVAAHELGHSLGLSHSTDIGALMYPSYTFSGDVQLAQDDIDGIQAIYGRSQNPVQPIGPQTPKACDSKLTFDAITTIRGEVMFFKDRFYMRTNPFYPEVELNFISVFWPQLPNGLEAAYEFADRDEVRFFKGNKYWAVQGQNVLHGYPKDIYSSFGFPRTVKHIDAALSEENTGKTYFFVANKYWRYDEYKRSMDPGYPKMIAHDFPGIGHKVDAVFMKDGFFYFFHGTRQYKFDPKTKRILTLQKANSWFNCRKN
The data set can be described thus: Measurement of MMP-1 inhibitory activity. The following applies: MMP-1 (Cosmo Bio), fluorogenic substrate. Type of data set: biochemical. The procedure:
Test 2 (Measurement of MMP-1 Inhibitory Activity)
MMP-1 inhibitory activity (IC50 value) was measured in accordance with the above-described measuring method of TACE inhibitory activity by using MMP-1 (product of Cosmo Bio Co.) and, as a substrate, 7-methoxycoumarin-4-yl-acetyl-PLGL-[N^3-(2,4-dinitrophenyl)2,3-diaminopropionyl]-AR—NH2 (product of Peptide Institute Inc.). The fluorescence intensity was measured using POLAR STAR (Ex: 340 nm, Em: 405 nm).

Data set [2] has as its system secretion of TNF-α, THP-1 cells. Put plainly: Inhibitory activity against secretion of TNF-α in LPS-stimulated THP-1 cells (ELISA). The class given is cell-based. The following applies: Homo sapiens, LPS 100 ng/mL, 37° C., 4 hours, ELISA of supernatant. The procedure:
Test 3 (Measurement of Inhibitory Activity Against on of TNF-α)
To THP-1 cells (5×10^5 mL) suspended in RPMI 1640 medium containing 10% FBS were added LPS (100 ng/mL) and a medicament of various concentrations (DMSO final concentration: 0.1%), followed by incubation at 37° C. for 4 hours under 5%-CO2 conditions. The TNF-α in the cultured supernatant was analyzed by ELISA, whereby inhibitory activity (IC50) against secretion of TNF-α was calculated.
(In general: In an ELISA, binding on a coated surface is turned into a signal by an enzyme label.)

Where only a bound is given, the exact number is not on record here.

T1 sequence (P78536 215-824): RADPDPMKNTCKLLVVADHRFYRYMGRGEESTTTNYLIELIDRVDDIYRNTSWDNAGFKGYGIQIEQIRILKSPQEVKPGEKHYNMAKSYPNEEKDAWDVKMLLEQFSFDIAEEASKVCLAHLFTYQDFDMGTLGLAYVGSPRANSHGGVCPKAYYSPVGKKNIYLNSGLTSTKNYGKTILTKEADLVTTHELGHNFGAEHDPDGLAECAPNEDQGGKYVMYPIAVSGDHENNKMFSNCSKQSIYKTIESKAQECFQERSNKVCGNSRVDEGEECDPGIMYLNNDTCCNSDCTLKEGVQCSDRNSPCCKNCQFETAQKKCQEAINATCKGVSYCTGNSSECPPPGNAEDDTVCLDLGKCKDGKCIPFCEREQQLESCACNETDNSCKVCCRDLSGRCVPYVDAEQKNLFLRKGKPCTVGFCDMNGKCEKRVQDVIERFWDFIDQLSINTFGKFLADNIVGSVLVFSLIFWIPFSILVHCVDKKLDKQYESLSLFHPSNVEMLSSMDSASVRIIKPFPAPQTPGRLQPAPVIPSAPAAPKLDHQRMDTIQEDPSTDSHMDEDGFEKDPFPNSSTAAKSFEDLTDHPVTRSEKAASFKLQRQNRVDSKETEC

Usually IC50 stands for the concentration needed to halve the response being measured. Higher therefore signals weaker potency in that assay. One may read the melting point as the temperature, or range, at which the solid turns liquid. For the compound `COc1ccc(S(=O)(=O)N(C)c2cccc(/C(=C\C(=O)NO)c3ccccc3)c2)cc1OC` [Compound 75, Z-3-[3-[N-(3,4-Dimethoxybenzenesulfonyl)-N-methylamino]phenyl]-3-phenylpropenohydroxamic acid], the melting point lay in the range of 98 to 101 °C. The same compound returned an IC50 in data set [1] of 13 nM. The compound also displayed an IC50 against MMP-1 above 10000 nM. Besides, half-maximal inhibition in data set [2] (IC50) was put at 6400 nM.

`CN(c1cccc(/C(=C\C(=O)NO)c2ccccc2)c1)S(=O)(=O)c1ccc([N+](=O)[O-])cc1` [Compound 68, Z-3-[3-[N-(4-Nitrobenzenesulfonyl)-N-methylamino]phenyl]-3-phenylpropenohydroxamic Acid]: the melting point is 153 to 155 °C. This compound showed a 50% inhibitory concentration (IC50) in data set [1] of 35 nM. The IC50 at MMP-1 is above 10000 nM.

On to `COc1ccc(S(=O)(=O)N(C)c2cccc(/C(=C\C(=O)NO)c3ccc[n+]([O-])c3)c2)cc1` [Compound 94, E-3-[3-[N-(4-Methoxybenzenesulfonyl)-N-methylamino]phenyl]-3-(3-pyridyl N-oxide)propenohydroxamic Acid], for which the IC50 in data set [1] was 13 nM; against MMP-1, above 10000 nM.

Consider `COc1ccc(S(=O)(=O)N(c2cccc(/C(=C\C(=O)NO)c3ccc[n+]([O-])c3)c2)C(C)C)cc1` [Compound 93, E-3-[3-[N-(4-methoxybenzenesulfonyl)-N-isopropylamino]phenyl]-3-(3-pyridyl N-oxide)propenohydroxamic Acid], for which the IC50 in data set [1] was 13 nM; at MMP-1 it was above 10000 nM; in data set [2], 5500 nM.

As for `COc1ccc(S(=O)(=O)N(C)c2cccc(/C(=C\C(=O)NO)c3ccccc3)c2)cc1` [Compound 62, Z-3-[3-[N-(4-Methoxybenzenesulfonyl)-N-methylamino]phenyl]-3-phenylpropenohydroxamic Acid], the figures for the IC50 (in data set [1]; on MMP-1) were 8.6 nM and above 10000 nM, respectively.

For `COc1ccc(S(=O)(=O)N(C)c2cccc(/C(=C\C(=O)NO)c3cccnc3)c2)cc1` [Compound 89, E-3-[3-[N-(4-Methoxybenzenesulfonyl)-N-methylamino]phenyl]-3-(3-pyridyl)propenohydroxamic Acid], the IC50 in data set [1] is 7 nM; against MMP-1, above 10000 nM; in data set [2], 4100 nM.

For the compound `COc1ccc(S(=O)(=O)N(c2cccc(/C(=C\C(=O)NO)c3ccccc3)c2)C(C)C)cc1` [Compound 63, Z-3-[3-[N-(4-Methoxybenzenesulfonyl)-N-isopropylamino]phenyl]-3-phenylpropenohydroxamic Acid], the IC50 is 8.6 nM in data set [1] and above 10000 nM against MMP-1.

Consider `COc1ccc(S(=O)(=O)N(c2cccc(/C(=C\C(=O)NO)c3cccnc3)c2)C(C)C)cc1` [Compound 88, E-3-[3-[N-(4-Methoxybenzenesulfonyl)-N-isopropylamino]phenyl]-3-(3-pyridyl)propenohydroxamic acid], for which the melting point is 158 to 160 °C. The compound also came in with an IC50 in data set [1] of 6.4 nM. Also, the IC50 against MMP-1 is above 10000 nM. Besides, in data set [2], 2800 nM corresponded to half-maximal inhibition (IC50).

For the origin of these results see US20040029928A1, “Novel propenohydroxamic acid derivatives” (priority 2000, published 2004).
